# Where “and” joins values, the source holds several entries; their conditions need not be identical. Identical values can stand only once. Entries after “also recorded” stand apart in the source; their conditions may differ.
# How the values were obtained:
# [1] = system: PSMA-negative PC-3 flu cells; experiment: Cell uptake in PSMA-negative cells; assay type: cell-based
# [2] = PBS/n-octanol distribution coefficient (logD); assay type: physicochemical; conditions: PBS pH 7.4/n-octanol
# PSMA = molecular target: T1, PSMA (Homo sapiens, UniProt Q04609); experiment: PSMA-binding affinity (KD values) on PC-3 PIP cells; conditions: on ice
# T1 construct: expressed in transfected cells; host or cells: PC-3 PIP prostate cancer cells (transduced to express PSMA), provided by Prof; Dr. Martin Pomper, Johns Hopkins University
# [3] = system: PSMA-positive PC-3 PIP tumor xenografts; experiment: Therapy study in PC-3 PIP tumor-bearing mice; assay type: in vivo, BALB/c nude mice
# Experimental: Five days after subcutaneous inoculation of four groups of mice with either PC-3 PIP or PC-3 flu tumor cells on the right shoulder (4 × 10^6 cells in 100 μL HBSS), the mice were intravenously injected with either vehicle only (saline with 0.05% BSA, n = 6 and n = 4, respectively) or with 30 kBq [^225Ac]Ac-SibuDAB (1 nmol per mouse; n = 4 per group) diluted in vehicle (Table 1).
# After tumor cell inoculation, mice bearing PC-3 PIP tumor xenografts were intravenously injected with vehicle only (n = 6) or with [^225Ac]Ac-SibuDAB or [^225Ac]Ac-PSMA-617, respectively, applied at 5 kBq or 10 kBq (1 nmol per mouse; n = 6 per group; Table 1). The control group consisted of mice from several studies (n = 12 mice) and the data from this group were published previously.
# After administration of the radioligands, the mice were monitored over 8 weeks using the same measures as previously published by Umbricht et al.. The relative body mass was defined as [BMx/BM0], where BMx is the body mass in grams at a given Day x and BM0 is the body mass in grams at Day 0. The tumor dimension was determined by measuring the longest tumor axis (L) and its perpendicular axis (W) with a digital caliper. The tumor volume (V) was calculated according to the equation [V = 0.5 × (LW^2)]. The relative tumor volume was defined as [TVx/TV0], where TVx is the tumor volume in mm^3 at a given Day x, and TV0 is the tumor volume in mm^3 at Day 0. Endpoint criteria that required euthanasia were defined as (i) body mass loss of >15%, (ii) a tumor volume of >800 mm^3, (iii) a combination of body mass loss of >10% and a tumor volume of >700 mm^3 or, (iv) signs of unease and pain or a combination thereof using a scoring system as previously reported. The median survival of mice of each group was assessed with Kaplan–Meier curves. Potential early side effects for mice that survived until study end were determined based on blood chemistry and organ-to-brain mass ratios on Day 56 by comparison to values obtained from an additional group of therapy-naïve mice (n = 4) without tumors but of the same age (Supplementary Material: Section S9).
# Table S10. Biodistribution data and tumor-to-background ratios obtained in PC3-PIP/flu tumor-bearing mice 48 h after injection of [225Ac]Ac-SibuDAB, [177Lu]Lu-SibuDAB, [225Ac]Ac-PSMA-617 or [177Lu]Lu-PSMA-617. Decay-corrected data of accumulated activity are shown as [% IA/g]-values, representing the average ± SD.
# Biodistribution data at 48 h p.i.
# 1 Data of [177Lu]Lu-PSMA-617 were previously published by Benešová et al., Mol Pharm 2018 [2]; Copyright 2018, American Chemical Society.
# Purpose: In order to determine the therapeutic efficacy of [225Ac]Ac-SibuDAB in com-parison to [225Ac]Ac-PSMA-617 as well as the 177Lu-labeled counterparts, therapy studies were conducted in PC-3 PIP xenograft-bearing BALB/c nude mice.
# Methods: The methods of the therapy study to assess the therapeutic efficacy of [225Ac]Ac-SibuDAB are reported in the main manuscript. An additional group of mice was treated with 10 MBq (1 nmol) [177Lu]Lu-SibuDAB under the same experimental condi-tions. Data previously acquired by our group for mice treated with 5 MBq [177Lu]Lu-SibuDAB were published by Borgna & Deberle et al. and data of mice treated with 5 MBq or 10 MBq [177Lu]Lu-PSMA-617 were previously published by Tschan et al. and Umbricht et al., respectively.
# Results: The assessment of the PSMA-specific therapeutic effect of [225Ac]Ac-SibuDAB as well as the comparison to [225Ac]Ac-PSMA-617 are described in the main ar-ticle. The body mass of effectively treated mice, in which the tumor disappeared entirely […]
# tumor-bearing mice that were treated with only vehicle as well as for some mice that were treated with 5 kBq or 10 kBq [225Ac]Ac-PSMA-617 and experienced a relapse in tumor
# T1 sequence (Q04609 whole entry): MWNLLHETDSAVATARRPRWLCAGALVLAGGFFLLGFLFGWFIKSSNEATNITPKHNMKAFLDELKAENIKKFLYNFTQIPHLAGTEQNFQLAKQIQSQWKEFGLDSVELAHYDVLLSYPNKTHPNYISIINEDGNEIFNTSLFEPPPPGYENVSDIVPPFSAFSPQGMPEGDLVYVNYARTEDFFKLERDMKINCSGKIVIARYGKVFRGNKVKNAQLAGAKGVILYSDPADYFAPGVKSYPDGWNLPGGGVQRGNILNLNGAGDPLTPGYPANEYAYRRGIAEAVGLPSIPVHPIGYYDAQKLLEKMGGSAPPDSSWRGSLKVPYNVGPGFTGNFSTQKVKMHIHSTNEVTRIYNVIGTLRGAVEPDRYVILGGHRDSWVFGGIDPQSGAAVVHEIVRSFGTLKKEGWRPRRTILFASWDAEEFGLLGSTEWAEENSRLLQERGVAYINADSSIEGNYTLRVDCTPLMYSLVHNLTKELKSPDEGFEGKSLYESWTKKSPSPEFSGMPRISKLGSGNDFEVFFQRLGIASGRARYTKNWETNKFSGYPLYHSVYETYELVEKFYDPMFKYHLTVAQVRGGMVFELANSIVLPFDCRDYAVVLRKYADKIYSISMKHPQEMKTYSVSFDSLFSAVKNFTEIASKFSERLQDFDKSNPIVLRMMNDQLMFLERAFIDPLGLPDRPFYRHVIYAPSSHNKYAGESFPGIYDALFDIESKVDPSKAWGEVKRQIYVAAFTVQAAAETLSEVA
SMILES,Cell uptake [1] [%],logD value [2],Kd (PSMA) [nM],Day of first endpoint ([3]; 5 kBq),Day of last endpoint ([3]; 5 kBq),Median Survival ([3]; 5 kBq),Number of Mice Alive on Day 56 ([3]; 5 kBq),Tumor response ([3]; 5 kBq),Day of first endpoint ([3]; 10 kBq),Day of last endpoint ([3]; 10 kBq),Median Survival ([3]; 10 kBq),Number of Mice Alive on Day 56 ([3]; 10 kBq),other results
O=C([O-])CN1CCN(CC(=O)[O-])CCN(CC(=O)NCC2CCC(C(=O)NC(Cc3ccc4ccccc4c3)C(=O)NCCCCC(NC(=O)NC(CCC(=O)O)C(=O)O)C(=O)O)CC2)CCN(CC(=O)[O-])CC1.[225Ac+3] (stereo not drawn) [[^225Ac]Ac-PSMA-617],< 1,≤ −3.9,11,42,56,46 days,one out of six and 1/6,tumor regrowth was observed,38,56,>56 ^3 days,four out of six and 4/6,
CC(C)Cc1ccc(C(C)C(=O)NC(CCN)C(=O)NCCCCC(NC(=O)CN2CCN(CC(=O)[O-])CCN(CC(=O)[O-])CCN(CC(=O)[O-])CC2)C(=O)NCC2CCC(C(=O)NC(Cc3ccc4ccccc4c3)C(=O)NCCCCC(NC(=O)NC(CCC(=O)O)C(=O)O)C(=O)O)CC2)cc1.[225Ac+3] (stereo not drawn) [[^225Ac]Ac-SibuDAB],< 1,−2.5 ± 0.1,17,56 ^2,56 ^2,>56 ^3 days,6/6,sufficient to eradicate the tumors; also recorded: effectively eradicated tumors of all mice; also recorded: no tumors were visible at Day 56,56 ^2,56 ^2,>56 ^3 days,6/6,"Tumor response ([3]; 5 kBq, listed as [225Ac]Ac-SibuDAB): no tumors were visible 56 days after; also recorded: no tumor visible on Day 56; Tumor response ([3]; 10 kBq): effectively eradicated tumors of all mice; Tumor response ([3]; 10 kBq, listed as [225Ac]Ac-SibuDAB): no tumor visible on Day 56; Day of first endpoint ([3]; 30 kBq): 56 ^2; Day of last endpoint ([3]; 30 kBq): 56 ^2; Median Survival ([3]; 30 kBq): >56 ^3 days; Number of Mice Alive on Day 56 ([3]; 30 kBq): 4/4; Tumor response ([3]; 30 kBq): eradicated PSMA-positive PC-3 PIP tumors entirely; Tumor response ([3]; 30 kBq, listed as [225Ac]Ac-SibuDAB): no tumor visible on Day 56"
